{"source": "patent US20240148821A1", "about": "“PHARMACEUTICAL USE OF CYCLIC PEPTIDE COMPOUND” (CHUGAI SEIYAKU KABUSHIKI KAISHA, priority 2021, published 2024)", "note": "Numbered stars: 1 amine (or outer) side, 2 acyl side, 3 side chain; on linkers, the order of the positions; unused ones are H or OH. Bridge positions count the residues as written; N and C are the ends. Square brackets hold non-standard residues; d marks the D form. Peptide text beside a SMILES is read from it. * marks the point of attachment. hPhe(3-Cl-4-CF3) = N[C@@H](CCc1ccc(C(F)(F)F)c(Cl)c1)C(=O)O; NMePhe(4-Me) = CN[C@@H](Cc1ccc(C)cc1)C(=O)O; NMedβ3hAla = C[C@H](CC(=O)[*:2])N(C)[*:1]; NMeGly(cPent) = CN[C@H](C(=O)O)C1CCCC1; Phe(3-I) = N[C@@H](Cc1cccc(I)c1)C(=O)O; Phe(2-F) = N[C@@H](Cc1ccccc1F)C(=O)O; NMeGly(cBu) = CN[C@H](C(=O)O)C1CCC1; NMeCha = CN[C@@H](CC1CCCCC1)C(=O)O; NMeD = CN[C@@H](CC(=O)O)C(=O)O; CH2CONHtBu = CC(C)(C)NC(=O)C*; NMeL = CN[C@@H](CC(C)C)C(=O)O; NMeV = CN[C@H](C(=O)O)C(C)C; d(β3hA) = C[C@@H](N)CC(=O)O; NMeS = CN[C@@H](CO)C(=O)O; NMeA = CN[C@@H](C)C(=O)O; NMeAib = CNC(C)(C)C(=O)O; Piperidide = C1CCN(*)CC1; Pyrrolidide = C1CCN(*)C1; Ac5c = NC1(C(=O)O)CCCC1; Aze = O=C(O)[C@@H]1CCN1; Aib = CC(C)(N)C(=O)O; Isopentyl = CC(C)CC*; Sar = CNCC(=O)O", "data": [{"test_system": "Human pancreatic cancer cell line AsPC-1 (G12D mutation Kras)", "assay": "AsPC-1 cell growth inhibition (AsPC-1 CGI)", "assay_type": "cell-based", "conditions": "read-out: AsPC-1 cell growth inhibition, 50% growth inhibitory concentration (IC50 value); 96 hours, CellTiter-Glo, values classified in ranges", "units": {"IC50": "nM"}, "description": "Test compounds were serially dilated with dimethyl sulfoxide, and 200 nL was then dispensed to a U-bottom 96-well plate using Labcyte Echo. […] The cell suspension was dispensed to a. plate containing a test compound at 100 μL per well and incubated at 37° C. in a 5% carbon dioxide gas incubator. 96 hours later, 80 μL of CellTiter-Glo (Promega) was added to each well and fluorescence was measured.", "values": [{"smiles": "CC[C@H](C)[C@@H]1NC(=O)[C@H](C)N(C)C(=O)C[C@@H](C(=O)N2CCCCC2)N(C)C(=O)[C@H](C(C)C)N(C)C(=O)C(C)(C)N(C)C(=O)[C@@H]2CCCN2C(=O)[C@H](CCc2ccc(C(F)(F)F)c(Cl)c2)NC(=O)CN(C)C(=O)[C@H](CC2CCCCC2)N(C)C(=O)CN(C)C(=O)CN(C)C1=O", "note": "[Compound 507] ([NMeA]I[Sar][Sar][NMeCha][Sar][hPhe(3-Cl-4-CF3)]P[NMeAib][NMeV][NMeD]-Piperidide; lactam N-11)", "IC50": "> 500"}, {"smiles": "CC[C@H](C)[C@@H]1NC(=O)[C@H](CC(C)C)N(C)C(=O)C[C@@H](C)NC(=O)[C@H](CC(C)C)N(C)C(=O)C2(CCCC2)NC(=O)[C@@H]2CCCN2C(=O)[C@H](CCc2ccc(C(F)(F)F)c(Cl)c2)NC(=O)CN(C)C(=O)[C@H](CC2CCCCC2)N(C)C(=O)CN(C)C(=O)CN(C)C1=O", "note": "[Compound 1503] (cyclo([Ac5c][NMeL][d(β3hA)][NMeL]I[Sar][Sar][NMeCha][Sar][hPhe(3-Cl-4-CF3)]P))", "IC50": "> 500"}, {"smiles": "CC[C@H](C)[C@@H]1NC(=O)[C@H](CC(C)C)N(C)C(=O)C[C@@H](C)NC(=O)[C@H](C2CCCC2)N(C)C(=O)[C@H](C)NC(=O)[C@@H]2CCCN2C(=O)[C@H](CCc2ccc(C(F)(F)F)c(Cl)c2)NC(=O)CN(C)C(=O)[C@H](Cc2ccc(C)cc2)N(C)C(=O)[C@@H]2CCN2C(=O)[C@H](C)N(C)C1=O", "note": "[Compound 1221] (cyclo(A[NMeGly(cPent)][d(β3hA)][NMeL]I[NMeA][Aze][NMePhe(4-Me)][Sar][hPhe(3-Cl-4-CF3)]P))", "IC50": "> 500"}, {"smiles": "CC[C@H](C)[C@@H]1NC(=O)[C@H](CC(C)C)N(C)C(=O)C[C@@H](C(=O)N2CCCCC2)N(C)C(=O)[C@H](C(C)C)N(C)C(=O)C2(CCCC2)NC(=O)[C@H](C)N(C)C(=O)[C@H](CCc2ccc(C(F)(F)F)c(Cl)c2)NC(=O)CN(C)C(=O)[C@H](CC2CCCCC2)N(C)C(=O)[C@@H]2CCN2C(=O)[C@H](C)N(C)C1=O", "note": "[Compound 1243] ([NMeL]I[NMeA][Aze][NMeCha][Sar][hPhe(3-Cl-4-CF3)][NMeA][Ac5c][NMeV][NMeD]-Piperidide; lactam N-11)", "IC50": "> 500"}, {"smiles": "CC[C@H](C)[C@@H]1NC(=O)[C@H](CC(C)C)N(C)C(=O)C[C@@H](C)N(C)C(=O)[C@H](CC(C)C)NC(=O)C(C)(C)N(C)C(=O)[C@H](CC(C)C)NC(=O)[C@H](CCc2ccc(C(F)(F)F)c(Cl)c2)NC(=O)CN(C)C(=O)[C@H](CC2CCCCC2)N(C)C(=O)[C@@H]2CCN2C(=O)CN(C)C1=O", "note": "[Compound 57] (cyclo([Aze][NMeCha][Sar][hPhe(3-Cl-4-CF3)]L[NMeAib]L[NMedβ3hAla][NMeL]I[Sar]))", "IC50": "> 500"}, {"smiles": "CC[C@H](C)[C@@H]1NC(=O)[C@H](CC(C)C)N(C)C(=O)C[C@@H](C(=O)N2CCCCC2)N(C)C(=O)[C@H](CC(C)C)N(C)C(=O)C(C)(C)NC(=O)[C@H](COCC(=O)NC(C)(C)C)N(C)C(=O)[C@H](CCc2ccc(C(F)(F)F)c(Cl)c2)NC(=O)CN(C)C(=O)[C@H](COCCC(C)C)N(C)C(=O)CN(C)C(=O)CN(C)C1=O", "note": "[Compound 1480] ([NMeL]I[Sar][Sar][NMeS](Isopentyl)[Sar][hPhe(3-Cl-4-CF3)][NMeS](CH2CONHtBu)[Aib][NMeL][NMeD]-Piperidide; lactam N-11)", "IC50": "> 500"}, {"smiles": "CC[C@H](C)[C@@H]1NC(=O)[C@H](CC(C)C)N(C)C(=O)C[C@@H](C)NC(=O)[C@H](C2CCC2)N(C)C(=O)C2(CCCC2)NC(=O)[C@@H]2CCCN2C(=O)[C@H](CCc2ccc(C(F)(F)F)c(Cl)c2)NC(=O)CN(C)C(=O)[C@H](CC2CCCCC2)N(C)C(=O)CN(C)C(=O)CN(C)C1=O", "note": "[Compound 183] (cyclo([Ac5c][NMeGly(cBu)][d(β3hA)][NMeL]I[Sar][Sar][NMeCha][Sar][hPhe(3-Cl-4-CF3)]P))", "IC50": "> 500"}, {"smiles": "CC[C@H](C)[C@@H]1NC(=O)[C@H](CC(C)C)N(C)C(=O)C[C@@H](C(=O)N2CCCC2)N(C)C(=O)[C@H](C2CCCC2)N(C)C(=O)C2(CCCC2)NC(=O)[C@@H]2CCCN2C(=O)[C@H](CCc2ccc(C(F)(F)F)c(Cl)c2)NC(=O)CN(C)C(=O)[C@H](CC2CCCCC2)N(C)C(=O)CN(C)C(=O)CN(C)C1=O", "note": "[Compound 1818] ([NMeL]I[Sar][Sar][NMeCha][Sar][hPhe(3-Cl-4-CF3)]P[Ac5c][NMeGly(cPent)][NMeD]-Pyrrolidide; lactam N-11)", "IC50": "≤ 20"}, {"smiles": "CC[C@H](C)[C@@H]1NC(=O)[C@H](CC(C)C)N(C)C(=O)C[C@@H](C(=O)N2CCCCC2)N(C)C(=O)[C@H](CC(C)C)NC(=O)C(C)(C)N(C)C(=O)[C@H](Cc2ccccc2F)NC(=O)[C@H](Cc2cccc(I)c2)NC(=O)CN(C)C(=O)[C@H](Cc2ccc(C)cc2)N(C)C(=O)CN(C)C(=O)CN(C)C1=O", "note": "[Compound 556] ([NMeL]I[Sar][Sar][NMePhe(4-Me)][Sar][Phe(3-I)][Phe(2-F)][NMeAib]L[NMeD]-Piperidide; lactam N-11)", "IC50": "> 500"}]}]}
